Reference: patent publication US20190000081A1, “PLANT DISEASE CONTROL COMPOSITION AND PLANT DISEASE CONTROL METHOD” (SUMITOMO CHEMICAL COMPANY, LIMITED, priority 2015, published 2019)

Legend:
wheat leaf blight fungus = test: Test Example 3: growth of wheat leaf blight fungus in YBG medium, microtiter plate, absorbance at 550 nm; type: cell-based, Mycosphaerella graminicola; details: single use, 18° C., six days
Description: The present compound 1-1 or the present compound 2-1 was dissolved into dimethyl sulfoxide such that each concentration of the present compound 1-1 or the present compound 2-1 was adjusted to one hundred fifty times as much as the concentration indicated in the below-mentioned Table 5. The resultant agent solution was dispensed into a microtiter plate (with 96 wells) in 1 μl portion thereof per well. One hundred forty nine (149) μl of YBG medium. (which was prepared by dissolving 10 g of yeast extract, 10 g of Bacto Peptone, and 20 mL of glycerol into 1 L of water, followed by sterilizing the medium) was dispensed into the wells to which the agent solution(s) was/were dispensed. The plate was cultivated at 18° C. for six days, thereby allowing wheat leaf blight fungus to undergo proliferation, and the absorbance at 550 nm of each well of the micro titer plate was then measured to examine a degree of growth of the wheat leaf blight fungus (hereinafter referred to as “treated group”).
Whereas, wheat leaf blight fungus was proliferated similarly to the case of the treated group except that dimethyl sulfoxide was used instead of the agent solution, and the degree of the growth was examined (hereinafter referred to as “untreated group”). The efficacy was calculated from the respective obtained degree of growth by the below-mentioned “Equation 1”.
Efficacy (%)=100×(X−Y)/X Equation 1 […]

[1] = system: wheat rust fungus (Puccinia recondita); test: Test Example 4: foliar spray of flowable formulations on potted wheat, wheat rust lesion area; type: in vivo; details: wheat (cultivar. Shirogane), single use
Description: Five (5) parts of the present compound 1-1, 35 parts of a mixture of white carbon and ammonium polyoxyethylene alkyl ether sulfate (the weight ratio of 1:1) and […] of water were mixed, and the mixture was then finely-ground by a wet grinding method to obtain a flowable formulation comprising the present compound 1-1. Separately, the flowable formulation comprising the present compound 2-1 was prepared according to the above-mentioned similar method except that the present compound 2-1 was used instead of the present compound 1-1 to form a flowable formulation comprising the present compound 2-1.
Each of the above-mentioned respective flowable formulations, and the flowable formulation comprising the present compound 1-1 and the present compound 2-1 that was prepared according to the above-mentioned Formulation Example 3 was diluted with water such that each concentration of the respective compounds in the dilution solutions was adjusted to that indicated in Table 6, to prepare the dilution solutions, respectively.
A plastic pot was filled with soil, and thereto wheat (cultivar. Shirogane) was seeded, and the plants were grown in a greenhouse for ten days. […]
From each of the lesion area of the treated group and the untreated group, respectively, the efficacy of the treated group was calculated by the below-mentioned Equation 2. […]

Cc1nnc(Cl)c(-c2c(F)cccc2F)c1-c1ccccc1 [Present compound 1-1]
Efficacy (%) (wheat leaf blight fungus; concentration in medium 0.005 ppm): 4% | Efficacy (%) (wheat leaf blight fungus; concentration in medium 0.1 ppm): 75% | Efficacy (%) ([1]; concentration 0.0001 ppm): 20% | Efficacy (%) ([1]; concentration 0.01 ppm): 31%
